Assay results: patent US20240109917A1 (ACTELION PHARMACEUTICALS LTD, priority 2020, published 2024)
pIC50: −log10 of the molar value. Read-outs that look alike come from different tables or passages of the source.

Columns and labels:
[1] = biological target: Tb-labeled inactive PDGFRβ (Homo sapiens (Human), UniProt P09619); assay: PDGFRβ LanthaScreen Assay; type: binding; conditions: read-out: PDGFR Lantha IC50
[2] = biological target: PDGFRβ (Rattus norvegicus (Rat), UniProt Q05030); assay: PDGFRβ Cellular Assay (PDGFRb P-Y751 HTRF in A10 cells stimulated with PDGF-BB); type: cell-based
Chain of PDGFRβ (Q05030 32-1097): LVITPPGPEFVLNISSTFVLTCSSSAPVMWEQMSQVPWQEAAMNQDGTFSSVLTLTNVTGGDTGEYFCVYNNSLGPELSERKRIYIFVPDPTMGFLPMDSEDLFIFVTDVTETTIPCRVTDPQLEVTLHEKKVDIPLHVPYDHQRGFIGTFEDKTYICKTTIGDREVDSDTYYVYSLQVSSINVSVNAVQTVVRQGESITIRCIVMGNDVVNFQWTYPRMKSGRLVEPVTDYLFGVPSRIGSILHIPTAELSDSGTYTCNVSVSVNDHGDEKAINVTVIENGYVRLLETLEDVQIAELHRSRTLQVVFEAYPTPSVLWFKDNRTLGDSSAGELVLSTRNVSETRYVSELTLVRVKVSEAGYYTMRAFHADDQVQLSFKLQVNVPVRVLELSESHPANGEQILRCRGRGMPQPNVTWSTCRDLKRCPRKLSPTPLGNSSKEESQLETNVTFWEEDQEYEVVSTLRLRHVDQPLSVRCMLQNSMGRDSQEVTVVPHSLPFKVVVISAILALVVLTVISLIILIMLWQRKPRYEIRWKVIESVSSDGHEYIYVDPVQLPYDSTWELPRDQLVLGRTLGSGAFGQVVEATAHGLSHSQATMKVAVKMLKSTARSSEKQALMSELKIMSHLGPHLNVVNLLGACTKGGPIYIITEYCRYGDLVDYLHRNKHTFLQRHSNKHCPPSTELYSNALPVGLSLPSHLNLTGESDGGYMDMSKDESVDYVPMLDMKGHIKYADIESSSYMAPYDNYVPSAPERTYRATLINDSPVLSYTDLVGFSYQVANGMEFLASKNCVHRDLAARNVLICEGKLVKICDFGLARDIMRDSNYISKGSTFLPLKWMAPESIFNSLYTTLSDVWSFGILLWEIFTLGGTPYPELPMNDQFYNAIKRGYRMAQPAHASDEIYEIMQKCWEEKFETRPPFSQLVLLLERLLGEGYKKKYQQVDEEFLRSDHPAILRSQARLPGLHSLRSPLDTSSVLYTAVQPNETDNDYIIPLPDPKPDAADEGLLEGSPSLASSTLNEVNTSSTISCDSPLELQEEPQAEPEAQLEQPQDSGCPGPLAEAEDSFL
Method in brief: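 Rat A10 cells, plated overnight, were treated with compound for 3 hours, then stimulated with PDGF-BB (working stock 100 ng/mL in 10% FBS medium). After lysis, PDGFRβ P-Y751 was detected by HTRF.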

[3] = biological target: His6-TEV-PDGFRβ (557-1016) (Homo sapiens (Human), UniProt P09619); assay: PDGFRβ HTRF Assay; type: biochemical; conditions: read-out: PDGFR HTRF IC50
Chain of His6-TEV-PDGFRβ (557-1016) (P09619 557-1016): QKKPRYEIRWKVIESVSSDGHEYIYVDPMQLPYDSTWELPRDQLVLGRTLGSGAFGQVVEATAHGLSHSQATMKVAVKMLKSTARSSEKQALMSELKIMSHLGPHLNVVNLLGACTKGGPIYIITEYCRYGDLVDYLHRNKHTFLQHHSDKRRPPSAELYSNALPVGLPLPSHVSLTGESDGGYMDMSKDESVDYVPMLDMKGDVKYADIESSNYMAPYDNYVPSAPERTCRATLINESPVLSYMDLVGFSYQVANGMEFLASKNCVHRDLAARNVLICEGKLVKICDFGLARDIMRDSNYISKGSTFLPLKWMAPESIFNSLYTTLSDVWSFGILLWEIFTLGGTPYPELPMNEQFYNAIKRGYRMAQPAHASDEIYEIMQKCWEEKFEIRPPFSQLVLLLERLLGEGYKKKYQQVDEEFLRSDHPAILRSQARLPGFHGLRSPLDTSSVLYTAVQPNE
Method in brief: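 Human PDGFRβ (557-1016) pre-incubated with compound for 30 min at RT in pH 7.5 HEPES/MgCl2/EGTA/Brij-35/DTT buffer. Reaction started with ATP and TK-biotin peptide, run 3 h at RT, then quenched with EDTA-containing Eu-cryptate antibody/streptavidin-XL665. HTRF 665/620 nm ratio read after 60 min; percent inhibition relative to DMSO and 10 μM imatinib controls.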

Chain of Tb-labeled inactive PDGFRβ (P09619 33-1106): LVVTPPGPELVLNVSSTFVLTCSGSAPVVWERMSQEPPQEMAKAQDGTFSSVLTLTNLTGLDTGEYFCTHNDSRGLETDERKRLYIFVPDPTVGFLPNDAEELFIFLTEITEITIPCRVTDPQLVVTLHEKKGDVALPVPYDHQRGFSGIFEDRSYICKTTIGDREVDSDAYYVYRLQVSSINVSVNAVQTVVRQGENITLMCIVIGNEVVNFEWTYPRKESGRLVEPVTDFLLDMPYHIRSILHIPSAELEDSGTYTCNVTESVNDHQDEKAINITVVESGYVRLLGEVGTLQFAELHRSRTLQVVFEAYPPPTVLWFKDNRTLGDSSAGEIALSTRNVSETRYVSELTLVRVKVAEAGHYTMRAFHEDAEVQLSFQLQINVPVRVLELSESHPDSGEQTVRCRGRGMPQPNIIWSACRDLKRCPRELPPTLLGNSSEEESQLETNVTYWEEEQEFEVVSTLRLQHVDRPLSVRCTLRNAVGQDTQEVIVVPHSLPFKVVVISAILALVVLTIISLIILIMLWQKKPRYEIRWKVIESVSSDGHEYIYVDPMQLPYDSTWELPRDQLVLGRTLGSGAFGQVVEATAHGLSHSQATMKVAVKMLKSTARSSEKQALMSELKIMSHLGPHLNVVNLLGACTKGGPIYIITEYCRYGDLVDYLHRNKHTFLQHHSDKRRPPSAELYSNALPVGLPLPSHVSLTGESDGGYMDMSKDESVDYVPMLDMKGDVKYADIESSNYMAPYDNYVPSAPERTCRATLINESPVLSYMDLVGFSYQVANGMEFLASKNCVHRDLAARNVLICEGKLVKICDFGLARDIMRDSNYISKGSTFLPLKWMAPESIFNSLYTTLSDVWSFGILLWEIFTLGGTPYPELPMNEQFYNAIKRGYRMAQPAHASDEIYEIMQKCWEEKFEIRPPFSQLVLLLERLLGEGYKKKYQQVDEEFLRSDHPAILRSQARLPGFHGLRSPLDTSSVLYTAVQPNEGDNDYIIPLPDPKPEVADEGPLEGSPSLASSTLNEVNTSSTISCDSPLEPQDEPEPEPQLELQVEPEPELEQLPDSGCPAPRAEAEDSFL

Cc1ncc(NC(=O)CN(C)C2CCOCC2)cc1NC(=O)c1cnn2cc(-c3cnn(C(F)F)c3)sc12 [Example 295, 2-(1-(difluoromethyl)-1H-pyrazol-4-yl)-N-(2-methyl-5-(2-(methyl(tetrahydro-2H-pyran-4-yl)amino)acetamido)pyridin-3-yl)pyrazolo[5,1-b]thiazole-7-carboxamide]
pIC50 [1]: 7.87
pIC50 ([2]; read-out: PDGFR Cellular IC50): 7.67
pIC50 [3]: 9.15

Cc1ncc(NC(=O)CN(C)C2CCOCC2)cc1NC(=O)c1cnn2cc(-c3cnn(C4CCC4)c3)sc12 [Example 296, 2-(1-cyclobutyl-1H-pyrazol-4-yl)-N-(2-methyl-5-(2-(methyl(tetrahydro-2H-pyran-4-yl)amino)acetamido)pyridin-3-yl)pyrazolo[5,1-b]thiazole-7-carboxamide]
pIC50 [1]: 8.43
pIC50 ([2]; read-out: PDGFR Cellular IC50): 8.12
pIC50 [3]: 9.52

Cc1ncc(NC(=O)CN(C)C2CCOCC2)cc1NC(=O)c1cnn2cc(-c3cnn(C(C)C#N)c3)sc12 (stereo not drawn) [Example 297, 2-(1-(1-cyanoethyl)-1H-pyrazol-4-yl)-N-(2-methyl-5-(2-(methyl(tetrahydro-2H-pyran-4-yl)amino)acetamido)pyridin-3-yl)pyrazolo[5,1-b]thiazole-7-carboxamide]
pIC50 [1]: 8.07
pIC50 ([2]; read-out: PDGFR Cellular IC50): 7.01
pIC50 [3]: 9.15

Cc1ncc(NC(=O)CN(C)C2CCOCC2)cc1NC(=O)c1cnn2cc(-c3cnn(CS(C)(=O)=O)c3)sc12 [Example 298, N-(2-methyl-5-(2-(methyl(tetrahydro-2H-pyran-4-yl)amino)acetamido)pyridin-3-yl)-2-(1-((methylsulfonyl)methyl)-1H-pyrazol-4-yl)pyrazolo[5,1-b]thiazole-7-carboxamide]
pIC50 [1]: 8.19
pIC50 ([2]; PDGFR Cellular IC50): 6.63
pIC50 [3]: 9.05

Cc1ncc(NC(=O)CN(C)C2CCOCC2)cc1NC(=O)c1cnn2cc(-c3cnn(CC#N)c3)sc12 [Example 299, 2-(1-(cyanomethyl)-1H-pyrazol-4-yl)-N-(2-methyl-5-(2-(methyl(tetrahydro-2H-pyran-4-yl)amino)acetamido)pyridin-3-yl)pyrazolo[5,1-b]thiazole-7-carboxamide]
pIC50 [1]: 8.22
pIC50 ([2]; read-out: PDGFR Cellular IC50): 6.99
pIC50 [3]: 9.30

Cc1ncc(NC(=O)CN(C)C2CCOCC2)cc1NC(=O)c1cnn2cc(-c3cnn(CC(N)=O)c3)sc12 [Example 300, 2-(1-(2-amino-2-oxoethyl)-1H-pyrazol-4-yl)-N-(2-methyl-5-(2-(methyl(tetrahydro-2H-pyran-4-yl)amino)acetamido)pyridin-3-yl)pyrazolo[5,1-b]thiazole-7-carboxamide]
pIC50 [1]: 7.91
pIC50 ([2]; read-out: PDGFR Cellular IC50): 5.99
pIC50 [3]: 8.92

COc1ncccc1-c1cn2ncc(C(=O)Nc3cc(C(=O)NCCN4CCC[C@@H]4C)cnc3C)c2s1 [Example 301, (S)-2-(2-methoxypyridin-3-yl)-N-(2-methyl-5-((2-(2-methylpyrrolidin-1-yl)ethyl)carbamoyl)pyridin-3-yl)pyrazolo[5,1-b]thiazole-7-carboxamide]
pIC50 [1]: 8.85
pIC50 ([2]; read-out: PDGFR Cellular IC50): 8.37
pIC50 [3]: 9.70

Cc1ncc(NC(=O)CC23CCCN2CCC3)cc1NC(=O)c1cnn2cc(-c3cnn(C)c3)sc12 [Example 302, 2-(1-methyl-1H-pyrazol-4-yl)-N-(2-methyl-5-(2-(tetrahydro-1H-pyrrolizin-7a(5H)-yl)acetamido)pyridin-3-yl)pyrazolo[5,1-b]thiazole-7-carboxamide]
pIC50 [1]: 7.21
pIC50 ([2]; read-out: PDGFR Cellular IC50): 8.15
pIC50 [3]: 8.92

Cc1ncc(NC(=O)CN2CCCC(O)C2)cc1NC(=O)c1cnn2cc(-c3cnn(C)c3)sc12 (stereo not drawn) [Example 303, N-(5-(2-(3-hydroxypiperidin-1-yl)acetamido)-2-methylpyridin-3-yl)-2-(1-methyl-1H-pyrazol-4-yl)pyrazolo[5,1-b]thiazole-7-carboxamide]
pIC50 [1]: 8.24
pIC50 ([2]; read-out: PDGFR Cellular IC50): 6.92
pIC50 [3]: 9.40

Cc1ncc(NC(=O)[C@@H]2C[C@@H](C)CN2C)cc1NC(=O)c1cnn2cc(-c3cnn(C)c3)sc12 [Example 304, N-(5-((2S,4R)-1,4-dimethylpyrrolidine-2-carboxamido)-2-methylpyridin-3-yl)-2-(1-methyl-1H-pyrazol-4-yl)pyrazolo[5,1-b]thiazole-7-carboxamide]
pIC50 [1]: 8.25
pIC50 ([2]; read-out: PDGFR Cellular IC50): 8.03
pIC50 [3]: 9.22

Cc1ncc(NC(=O)C[C@@H]2CCCCN2C(C)C)cc1NC(=O)c1cnn2cc(-c3cnn(C)c3)sc12 [Example 305, (S)—N-(5-(2-(1-isopropylpiperidin-2-yl)acetamido)-2-methylpyridin-3-yl)-2-(1-methyl-1H-pyrazol-4-yl)pyrazolo[5,1-b]thiazole-7-carboxamide]
pIC50 [1]: 7.24
pIC50 ([2]; read-out: PDGFR Cellular IC50): 6.51
pIC50 [3]: 8.68

Cc1ncc(NC(=O)C(C)N2CCCCCC2)cc1NC(=O)c1cnn2cc(-c3cnn(C)c3)sc12 (stereo not drawn) [Example 306, N-(5-(2-(azepan-1-yl)propanamido)-2-methylpyridin-3-yl)-2-(1-methyl-1H-pyrazol-4-yl)pyrazolo[5,1-b]thiazole-7-carboxamide]
pIC50 [1]: 8.05
pIC50 ([2]; read-out: PDGFR Cellular IC50): 8.32
pIC50 [3]: 9.30

Cc1ncc(NC(=O)CC(C)N2CCCCC2)cc1NC(=O)c1cnn2cc(-c3cnn(C)c3)sc12 (stereo not drawn) [Example 307, 2-(1-methyl-1H-pyrazol-4-yl)-N-(2-methyl-5-(3-(piperidin-1-yl)butanamido)pyridin-3-yl)pyrazolo[5,1-b]thiazole-7-carboxamide]
pIC50 [1]: 6.68
pIC50 ([2]; read-out: PDGFR Cellular IC50): 7.14
pIC50 [3]: 8.01

Cc1ncc(NC(=O)[C@@H]2CCCN3CCCC[C@H]23)cc1NC(=O)c1cnn2cc(-c3cnn(C)c3)sc12 [Example 308, 2-(1-methyl-1H-pyrazol-4-yl)-N-(2-methyl-5-((1R,9aR)-octahydro-2H-quinolizine-1-carboxamido)pyridin-3-yl)pyrazolo[5,1-b]thiazole-7-carboxamide]
pIC50 [1]: 6.15
pIC50 ([2]; read-out: PDGFR Cellular IC50): 6.51
pIC50 [3]: 7.68

COc1ncccc1-c1cn2ncc(C(=O)Nc3cc(NC(=O)C[C@H]4CCCN4C(C)C)cnc3C)c2s1 [Example 309, (R)—N-(5-(2-(1-isopropylpyrrolidin-2-yl)acetamido)-2-methylpyridin-3-yl)-2-(2-methoxypyridin-3-yl)pyrazolo[5,1-b]thiazole-7-carboxamide]
pIC50 [1]: 8.82
pIC50 ([2]; read-out: PDGFR Cellular IC50): 8.38
pIC50 [3]: 9.70

COc1ncccc1-c1cn2ncc(C(=O)Nc3cc(NC(=O)CN4CCOCC45CCC5)cnc3C)c2s1 [Example 310, N-(5-(2-(8-oxa-5-azaspiro[3.5]nonan-5-yl)acetamido)-2-methylpyridin-3-yl)-2-(2-methoxypyridin-3-yl)pyrazolo[5,1-b]thiazole-7-carboxamide]
pIC50 [1]: 8.85
pIC50 ([2]; read-out: PDGFR Cellular IC50): 8.48
pIC50 [3]: 9.52

CC[C@H]1CN(CC(=O)Nc2cnc(C)c(NC(=O)c3cnn4cc(-c5cccnc5OC)sc34)c2)CCO1 [Example 311, (S)—N-(5-(2-(2-ethylmorpholino)acetamido)-2-methylpyridin-3-yl)-2-(2-methoxypyridin-3-yl)pyrazolo[5,1-b]thiazole-7-carboxamide]
pIC50 [1]: 8.89
pIC50 ([2]; read-out: PDGFR Cellular IC50): 8.62
pIC50 [3]: 9.70

Cc1ncc(NC(=O)CN2CCCC2)cc1NC(=O)c1cnn2cc(-c3cccnc3O)sc12 [Example 312, 2-(2-hydroxypyridin-3-yl)-N-(2-methyl-5-(2-(pyrrolidin-1-yl)acetamido)pyridin-3-yl)pyrazolo[5,1-b]thiazole-7-carboxamide]
pIC50 [1]: 7.41
pIC50 ([2]; read-out: PDGFR Cellular IC50): 6.02
pIC50 [3]: 8.74

COc1ncccc1-c1cn2ncc(C(=O)Nc3cc(NC(=O)CN4CCCC4)cnc3C)c2s1 [Example 313, 2-(2-methoxypyridin-3-yl)-N-(2-methyl-5-(2-(pyrrolidin-1-yl)acetamido)pyridin-3-yl)pyrazolo[5,1-b]thiazole-7-carboxamide]
pIC50 [1]: 8.59
pIC50 ([2]; read-out: PDGFR Cellular IC50): 8.55
pIC50 [3]: 9.70

Cc1ncc(NC(=O)C2CCCCN2C(C)C)cc1NC(=O)c1cnn2cc(-c3cccnc3O)sc12 (stereo not drawn) [Example 314, 2-(2-hydroxypyridin-3-yl)-N-(5-(1-isopropylpiperidine-2-carboxamido)-2-methylpyridin-3-yl)pyrazolo[5,1-b]thiazole-7-carboxamide]
pIC50 [1]: 7.19
pIC50 ([2]; read-out: PDGFR Cellular IC50): 6.26
pIC50 [3]: 8.60

COc1ncccc1-c1cn2ncc(C(=O)Nc3cc(NC(=O)C4CCCCN4C(C)C)cnc3C)c2s1 (stereo not drawn) [Example 315, N-(5-(1-isopropylpiperidine-2-carboxamido)-2-methylpyridin-3-yl)-2-(2-methoxypyridin-3-yl)pyrazolo[5,1-b]thiazole-7-carboxamide]
pIC50 [1]: 8.34
pIC50 ([2]; read-out: PDGFR Cellular IC50): 8.27
pIC50 [3]: 9.52

Cc1ncc(NC(=O)[C@@H]2C[C@H](C)CN2C)cc1NC(=O)c1cnn2cc(-c3cccnc3O)sc12 [Example 316, N-(5-((2S,4S)-1,4-dimethylpyrrolidine-2-carboxamido)-2-methylpyridin-3-yl)-2-(2-hydroxypyridin-3-yl)pyrazolo[5,1-b]thiazole-7-carboxamide]
pIC50 [1]: 7.66
pIC50 ([2]; read-out: PDGFR Cellular IC50): 7.23
pIC50 [3]: 8.72

COc1ncccc1-c1cn2ncc(C(=O)Nc3cc(NC(=O)[C@@H]4C[C@H](C)CN4C)cnc3C)c2s1 [Example 317, N-(5-((2S,4S)-1,4-dimethylpyrrolidine-2-carboxamido)-2-methylpyridin-3-yl)-2-(2-methoxypyridin-3-yl)pyrazolo[5,1-b]thiazole-7-carboxamide]
pIC50 [1]: 8.60
pIC50 ([2]; read-out: PDGFR Cellular IC50): 8.19
pIC50 [3]: 9.52
